# Assay results: ChEMBL document CHEMBL5113469, “Synthesis and biological evaluation of a tumor-selective degrader of PARP1” (Bioorg Med Chem, 2022)
# pIC50: −log10 of the molar value. The source made the active and inactive calls. The calls are words filed in the database; no cut-off is given here.
# Assays:
# MDA-MB-436 = assay: Antiproliferative activity against human MDA-MB-436 cells assessed as cell growth inhibition incubated for 5 days by MTT assay; assay type: functional, cell-based; settings: MDA-MB-436, 120 h
# MDA-MB-231 [1] = assay: Antiproliferative activity against human MDA-MB-231 cells assessed as cell growth inhibition incubated for 5 days by MTT assay; assay type: functional, cell-based; settings: MDA-MB-231, 120 h
# MDA-MB-468 = assay: Antiproliferative activity against human MDA-MB-468 cells assessed as cell growth inhibition incubated for 5 days by MTT assay; assay type: functional, cell-based; settings: MDA-MB-468, 120 h
# CAPAN-1 = assay: Antiproliferative activity against human CAPAN-1 cells assessed as cell growth inhibition incubated for 5 days by MTT assay; assay type: functional, cell-based; settings: CAPAN-1, 120 h
# [2] = biological target: Protein cereblon/Poly [ADP-ribose] polymerase 1 (Homo sapiens, UniProt P09874+Q96SW2); assay: PROTAC activity at CRBN/PARP1 in human MDA-MB-231 cells assessed as induction of PARP1 degradation at 1 uM incubated for 24 hrs by western blot analysis; assay type: cell-based
# MDA-MB-231 [3] = assay: Induction of cell cycle arrest in human MDA-MB-231 cells assessed as accumulation at G0/G1 phase at 0.625 uM incubated for 24 hrs by propidium iodide staining based flow cytometry analysis (reference value: 32.62 %); assay type: functional
# MDA-MB-231 [4] = assay: Induction of cell cycle arrest in human MDA-MB-231 cells assessed as accumulation at S phase at 1.25 uM incubated for 24 hrs by propidium iodide staining based flow cytometry analysis (reference value: 37.88 %); assay type: functional
# MDA-MB-231 [5] = assay: Induction of cell cycle arrest in human MDA-MB-231 cells assessed as accumulation at G0/G1 phase at 1.25 uM incubated for 24 hrs by propidium iodide staining based flow cytometry analysis (reference value: 32.62 %); assay type: functional
# MDA-MB-231 [6] = assay: Induction of cell cycle arrest in human MDA-MB-231 cells assessed as accumulation at S phase at 2.5 uM incubated for 24 hrs by propidium iodide staining based flow cytometry analysis (reference value: 37.88 %); assay type: functional
# MDA-MB-231 [7] = assay: Induction of cell cycle arrest in human MDA-MB-231 cells assessed as accumulation at S phase at 0.312 uM incubated for 24 hrs by propidium iodide staining based flow cytometry analysis (reference value: 37.88 %); assay type: functional
# MDA-MB-231 [8] = assay: Induction of cell cycle arrest in human MDA-MB-231 cells assessed as accumulation at G0/G1 phase at 5 uM incubated for 24 hrs by propidium iodide staining based flow cytometry analysis (reference value: 32.62 %); assay type: functional
# MDA-MB-231 [9] = assay: Induction of cell cycle arrest in human MDA-MB-231 cells assessed as accumulation at G2/M phase at 2.5 uM incubated for 24 hrs by propidium iodide staining based flow cytometry analysis (reference value: 27.14 %); assay type: functional
# MDA-MB-231 [10] = assay: Induction of cell cycle arrest in human MDA-MB-231 cells assessed as accumulation at G2/M phase at 5 uM incubated for 24 hrs by propidium iodide staining based flow cytometry analysis (reference value: 27.14 %); assay type: functional
# MDA-MB-231 [11] = assay: Induction of cell cycle arrest in human MDA-MB-231 cells assessed as accumulation at S phase at 0.625 uM incubated for 24 hrs by propidium iodide staining based flow cytometry analysis (reference value: 37.88 %); assay type: functional
# MDA-MB-231 [12] = assay: Induction of cell cycle arrest in human MDA-MB-231 cells assessed as accumulation at G2/M phase at 0.312 uM incubated for 24 hrs by propidium iodide staining based flow cytometry analysis (reference value: 27.14 %); assay type: functional
# MDA-MB-231 [13] = assay: Induction of cell cycle arrest in human MDA-MB-231 cells assessed as accumulation at G2/M phase at 0.625 uM incubated for 24 hrs by propidium iodide staining based flow cytometry analysis (reference value: 27.14 %); assay type: functional
# MDA-MB-231 [14] = assay: Induction of cell cycle arrest in human MDA-MB-231 cells assessed as accumulation at S phase at 5 uM incubated for 24 hrs by propidium iodide staining based flow cytometry analysis (reference value: 37.88 %); assay type: functional
# MDA-MB-231 [15] = assay: Induction of cell cycle arrest in human MDA-MB-231 cells assessed as accumulation at G0/G1 phase at 2.5 uM incubated for 24 hrs by propidium iodide staining based flow cytometry analysis (reference value: 32.62 %); assay type: functional
# MDA-MB-231 [16] = assay: Induction of cell cycle arrest in human MDA-MB-231 cells assessed as accumulation at G2/M phase at 1.25 uM incubated for 24 hrs by propidium iodide staining based flow cytometry analysis (reference value: 27.14 %); assay type: functional
# MDA-MB-231 [17] = assay: Induction of cell cycle arrest in human MDA-MB-231 cells assessed as accumulation at G0/G1 phase at 0.312 uM incubated for 24 hrs by propidium iodide staining based flow cytometry analysis (reference value: 32.62 %); assay type: functional
# Protein cereblon/Poly [ADP-ribose] polymerase 1, sequence (P09874 2-1014 limits assumed): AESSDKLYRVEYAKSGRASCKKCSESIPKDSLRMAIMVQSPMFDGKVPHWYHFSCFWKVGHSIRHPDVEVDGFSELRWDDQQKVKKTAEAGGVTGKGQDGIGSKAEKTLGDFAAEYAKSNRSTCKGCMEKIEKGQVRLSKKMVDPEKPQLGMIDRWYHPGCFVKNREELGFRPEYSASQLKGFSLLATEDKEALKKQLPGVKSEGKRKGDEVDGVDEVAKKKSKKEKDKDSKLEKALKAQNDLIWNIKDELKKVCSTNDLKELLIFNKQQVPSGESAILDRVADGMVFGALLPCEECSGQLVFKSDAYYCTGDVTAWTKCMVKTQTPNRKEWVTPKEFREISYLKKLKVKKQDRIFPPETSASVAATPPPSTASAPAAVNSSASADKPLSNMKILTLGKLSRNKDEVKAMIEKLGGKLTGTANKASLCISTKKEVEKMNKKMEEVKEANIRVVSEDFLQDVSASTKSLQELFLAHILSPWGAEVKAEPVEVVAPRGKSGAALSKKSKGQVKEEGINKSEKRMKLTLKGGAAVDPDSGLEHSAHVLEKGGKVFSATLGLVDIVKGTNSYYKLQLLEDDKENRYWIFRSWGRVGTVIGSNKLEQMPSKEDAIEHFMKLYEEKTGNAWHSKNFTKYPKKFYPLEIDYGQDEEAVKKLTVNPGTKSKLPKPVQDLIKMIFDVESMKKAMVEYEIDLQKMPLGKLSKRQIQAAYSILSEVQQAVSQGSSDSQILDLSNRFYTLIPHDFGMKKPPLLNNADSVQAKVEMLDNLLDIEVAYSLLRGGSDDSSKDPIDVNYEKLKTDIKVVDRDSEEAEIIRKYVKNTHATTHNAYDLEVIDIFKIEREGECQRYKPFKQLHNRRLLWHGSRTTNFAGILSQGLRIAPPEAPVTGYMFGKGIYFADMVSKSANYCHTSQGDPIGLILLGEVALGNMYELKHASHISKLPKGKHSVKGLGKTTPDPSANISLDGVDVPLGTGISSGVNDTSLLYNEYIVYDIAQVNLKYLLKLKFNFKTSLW
# Protein cereblon/Poly [ADP-ribose] polymerase 1, sequence (Q96SW2 whole entry partner): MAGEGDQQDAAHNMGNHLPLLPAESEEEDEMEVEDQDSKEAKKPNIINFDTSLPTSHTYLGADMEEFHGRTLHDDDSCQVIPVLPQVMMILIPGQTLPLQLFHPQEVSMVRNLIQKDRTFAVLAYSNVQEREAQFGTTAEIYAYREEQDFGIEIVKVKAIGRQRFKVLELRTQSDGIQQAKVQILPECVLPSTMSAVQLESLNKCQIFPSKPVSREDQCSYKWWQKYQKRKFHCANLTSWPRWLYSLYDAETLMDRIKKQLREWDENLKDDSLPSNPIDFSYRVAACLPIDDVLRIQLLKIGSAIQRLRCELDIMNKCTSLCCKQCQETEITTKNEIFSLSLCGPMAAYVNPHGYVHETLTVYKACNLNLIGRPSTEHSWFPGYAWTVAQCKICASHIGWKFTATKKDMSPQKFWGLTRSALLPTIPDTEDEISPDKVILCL
pIC50 (MDA-MB-436),pIC50 (MDA-MB-231 [1]),pIC50 (MDA-MB-468),SMILES,pIC50 (CAPAN-1),further results
6.89,5.27,5.36,O=C1CCC(N2C(=O)c3cccc(NC(=O)CNCCCCCCCCCC(=O)N4CCN(C(=O)c5cc(Cc6n[nH]c(=O)c7ccccc67)ccc5F)CC4)c3C2=O)C(=O)N1 (stereo not drawn),6.66,Activity [2]: Active
7.70,,5.38,O=C(c1cc(Cc2n[nH]c(=O)c3ccccc23)ccc1F)N1CCN(C(=O)C2CC2)CC1 [OLAPARIB],7.28,Activity (MDA-MB-231 [3]): 33.68%; Activity (MDA-MB-231 [4]): 33.8%; Activity (MDA-MB-231 [5]): 29.71%; Activity (MDA-MB-231 [6]): 38.31%; Activity (MDA-MB-231 [7]): 46.21%; Activity (MDA-MB-231 [8]): 23.6%; Activity (MDA-MB-231 [9]): 37.91%; Activity (MDA-MB-231 [10]): 39.58%; Activity (MDA-MB-231 [11]): 33.33%; Activity (MDA-MB-231 [12]): 26.17%; Activity (MDA-MB-231 [13]): 31.86%; Activity (MDA-MB-231 [14]): 37.59%; Activity (MDA-MB-231 [15]): 28.07%; Activity (MDA-MB-231 [16]): 34.71%; Activity (MDA-MB-231 [17]): 35.88%
5.37,< 4.70,< 4.70,O=C1CCC(N2C(=O)c3cccc(NC(=O)CNCCCCCC(=O)N4CCN(C(=O)c5cc(Cc6n[nH]c(=O)c7ccccc67)ccc5F)CC4)c3C2=O)C(=O)N1 (stereo not drawn),5.31,

# Continued, compound first:
SMILES,pIC50 (MDA-MB-436),pIC50 (MDA-MB-231 [1]),pIC50 (MDA-MB-468),pIC50 (CAPAN-1),further results
O=C1CCC(N2C(=O)c3cccc(NC(=O)CNCCCCC(=O)N4CCN(C(=O)c5cc(Cc6n[nH]c(=O)c7ccccc67)ccc5F)CC4)c3C2=O)C(=O)N1 (stereo not drawn),5.24,< 4.70,< 4.70,5.19,
O=C1CCC(N2C(=O)c3cccc(NC(=O)CNCC(=O)N4CCN(C(=O)c5cc(Cc6n[nH]c(=O)c7ccccc67)ccc5F)CC4)c3C2=O)C(=O)N1 (stereo not drawn),< 5.00,< 4.70,< 4.70,< 5.00,
O=C1CCC(N2C(=O)c3cccc(NC(=O)CNCCCCCCCCCCCC(=O)N4CCN(C(=O)c5cc(Cc6n[nH]c(=O)c7ccccc67)ccc5F)CC4)c3C2=O)C(=O)N1 (stereo not drawn),7.47,5.38,5.51,7.19,
O=C1CCC(N2C(=O)c3cccc(NC(=O)CNCCCCCCCCCCCCC(=O)N4CCN(C(=O)c5cc(Cc6n[nH]c(=O)c7ccccc67)ccc5F)CC4)c3C2=O)C(=O)N1 (stereo not drawn),7.12,5.14,5.30,6.62,
